System: schedule fed male SPRD rat
Assay: Assay (I): efficacy on appetite, schedule-fed rat model, food intake (diet consumed)
Assay type: in vivo
Conditions: for Diet Consumed 1 hr (mean X of 8 rats): 1 hr after dosing; for Diet Consumed 2 hr (mean X of 8 rats): cumulative at 2 hr after dosing; for Diet Consumed 3 hr (mean X of 8 rats): cumulative at 3 hr after dosing
Description: FIG. 1: Effect on food intake in schedule fed (8 h-13 h) male SPRD rat model as described in assay 1. The rats are dosed ip at 08.00 h with vehicle, sibutramine (3 mg/kg) and (S,S)-6-(4-amino-butyl)-1-biphenyl-4-ylmethyl-3-naphthalen-2-ylmethyl-piperazine-2,5-dione (example 11) (1, 3 or 10 mg/kg). Rat chow and water is available from just post dosing, and food intake is measured every hour from dosing to 3 hours post dosing.
The bars indicate the cumulated food intake over time.
Assay (I) Experimental Protocol for Efficacy Testing on Appetite with MC4 Analogues, Using a Schedule—Fed Rat Model.
TAC:SPRD @mol rats or Wistar rats from M&B Breeding and Research Centre A/S, Denmark are used for the experiments. The rats have a bodyweight 200-250 g at the start of experiment. The rats arrive at least 10-14 days before start of experiment with a bodyweight of 180-200 g. Each dose of compound is tested in a group of 8 rats. A vehicle group of 8 rats is included in each set of testing.
When the animals arrive they are housed individually. After a habituating period of 4-7 days with free access to food and water, the schedule feeding is initiated. The rats are allowed to eat from 08 am to 01 pm each day. In the remaining period only access to water is allowed. They are kept on this feeding schedule for 8 days before start of experiment. In this period the animals are handled and dosed in the relevant way (ip, po, sc.) with saline at least 3 times. The experiment is conducted in the rat home cages. Immediately before dosing the rats are randomised to the different treatment groups (n=8) by bodyweight. They are dosed according to bodyweight at 08 am, with a 1 ml/kg solution either, ip, po or sc. The dosing time is recorded for each group. Following dosing the rats are returned to their home cages, where they now have access to food and water. The food consumption is recorded individually, each hour for 3 hours. At the end of the experimental session, the animals are euthanised.
The individual data are recorded in Microsoft excel sheets. Outliers are excluded after using the Grubbs statistical evaluation test for outliers and the result presented graphically by using the GraphPad Prism program.

SMILES | Diet Consumed 1 hr (mean X of 8 rats) (3 mg/kg i.p.) [Grams] | Diet Consumed 2 hr (mean X of 8 rats) (3 mg/kg i.p.) [Grams] | Diet Consumed 3 hr (mean X of 8 rats) (3 mg/kg i.p.) [Grams] | Diet Consumed 1 hr (mean X of 8 rats) (1 mg/kg i.p.) [Grams] | Diet Consumed 2 hr (mean X of 8 rats) (1 mg/kg i.p.) [Grams] | Diet Consumed 3 hr (mean X of 8 rats) (1 mg/kg i.p.) [Grams] | Diet Consumed 1 hr (mean X of 8 rats) (10 mg/kg i.p.) [Grams] | Diet Consumed 2 hr (mean X of 8 rats) (10 mg/kg i.p.) [Grams] | Diet Consumed 3 hr (mean X of 8 rats) (10 mg/kg i.p.) [Grams]
CC(C)CC(N(C)C)C1(c2ccc(Cl)cc2)CCC1 (stereo not drawn) [Sibutramine, reference compound] | 3.5 | 7.0 | 9.4 |  |  |  |  |  | 
NCCCC[C@H]1C(=O)N[C@@H](Cc2ccc3ccccc3c2)C(=O)N1Cc1ccc(-c2ccccc2)cc1 [Example 23, (S,S)-6-(4-Amino-butyl)-1-biphenyl-4-ylmethyl-3-naphthalen-2-ylmethyl-piperazine-2,5-dione] | 3.4 | 7.1 | 8.5 | 2.4 | 6.3 | 8.4 | 2.7 | 5.4 | 6.3
